The record followed here is US8759532B2, “Pyridine and pyrimidine derivatives as phosphodiesterase 10 inhibitors” (AMGEN Inc., priority 2008, dated 2014).

The target in the experiment is PDE10 (Mus musculus, UniProt Q8CA95). Description: PDE10 enzyme inhibition, IMAP TR-FRET assay. It counts as biochemical. How it is done:
MPDE10A7 Enzyme Activity and Inhibition
An IMAP TR-FRET assay was used to analyze the enzyme activity (Molecular Devices Corp., Sunnyvale Calif.). 5 μL of serial diluted PDE10A (BPS Bioscience, San Diego, Calif.) or tissue homogenate was incubated with equal volumes of diluted fluorescein labeled cAMP or cGMP for 60 min in 384-well polystyrene assay plates (Corning, Corning, N.Y.) at room temperature. After incubation, the reaction was stopped by adding 60 μL of diluted binding reagents and was incubated for 3 hours to overnight at room temperature. The plates were read on an Envision (Perkin Elmer, Waltham, Mass.) for time resolved fluorescence resonance energy transfer. The data were analyzed with GraphPad Prism (La Jolla, Calif.).
To check the inhibition profile, 5 μL of serial diluted compounds were incubated with 5 μL of diluted PDE10 enzyme (BPS Bioscience, San Diego, Calif.) or tissue homogenate in a 384-well polystyrene assay plate (Corning, Corning, N.Y.) for 30 min at room temperature. After incubation, 10 μL of diluted fluorescein labeled cAMP or cGMP substrate were added and incubated for 60 min at room temperature. The reaction was stopped by adding 60 μL of diluted binding reagents and plates were read on an Envision (Perkin Elmer, Waltham, Mass.) for time resolved fluorescence resonance energy transfer. The data were analyzed with GraphPad Prism (La Jolla, Calif.).
The tabulated IC50 data represent an average IC50 data for each compound.
For orientation: In TR-FRET formats the signal depends on donor and acceptor labels being close together.

Usually IC50 stands for the concentration that inhibits the measured activity by half. Read a high IC50 as weaker potency in that assay.

Chain of PDE10 (Q8CA95 whole entry, looked up): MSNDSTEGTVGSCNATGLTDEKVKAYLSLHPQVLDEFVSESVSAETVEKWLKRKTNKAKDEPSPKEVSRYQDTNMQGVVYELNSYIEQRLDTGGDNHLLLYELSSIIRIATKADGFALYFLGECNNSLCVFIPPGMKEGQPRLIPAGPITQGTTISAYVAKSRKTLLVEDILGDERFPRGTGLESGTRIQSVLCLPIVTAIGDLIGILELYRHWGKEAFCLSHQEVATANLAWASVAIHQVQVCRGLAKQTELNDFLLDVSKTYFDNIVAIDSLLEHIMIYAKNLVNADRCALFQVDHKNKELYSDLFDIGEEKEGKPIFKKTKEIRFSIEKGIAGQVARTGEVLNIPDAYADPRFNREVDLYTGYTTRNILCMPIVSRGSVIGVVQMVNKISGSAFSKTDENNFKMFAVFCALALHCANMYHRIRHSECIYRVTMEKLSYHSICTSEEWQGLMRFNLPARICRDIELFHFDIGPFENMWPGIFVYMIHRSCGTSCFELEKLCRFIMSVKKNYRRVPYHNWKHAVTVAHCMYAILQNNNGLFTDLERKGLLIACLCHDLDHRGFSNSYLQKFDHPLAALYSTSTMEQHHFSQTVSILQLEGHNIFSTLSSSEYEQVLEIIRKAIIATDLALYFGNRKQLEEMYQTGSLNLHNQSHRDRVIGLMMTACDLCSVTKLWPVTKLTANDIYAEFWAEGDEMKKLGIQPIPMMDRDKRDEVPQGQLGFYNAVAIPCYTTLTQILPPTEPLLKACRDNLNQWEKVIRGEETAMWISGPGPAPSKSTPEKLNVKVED

For the setting “IC50 class against PDE10, Table IA”, `FC(F)(F)c1cc(-c2cccnc2Oc2ccc(Cc3nc4ccccc4[nH]3)cc2)ccn1` [Example 62, 2-(4-(2′-(trifluoromethyl)-3,4′-bipyriidn-2-yloxy)benzyl)-1H-benzo[d]imidazole] came in with an IC50 of 100 to 250 nM. For the setting “IC50 class against PDE10, Table IIA”, `COc1cnccc1-c1cccnc1Oc1ccc(Nc2nc3ccccc3s2)cc1` [Example 165, N-(4-(3′-methoxy-3,4′-bipyriidn-2-yloxy)phenyl)benzo[d]thiazol-2-amine] registered an IC50 below 25 nM.

For the compound “(R)-4-(2-(4-(1H-benzo[d]imidazole-2-carbonyl)phenoxy)pyridin-3-yl)-1-methylpyrrolidin-2-one and (S)-4-(2-(4-(1H-benzo[d]imidazole-2-carbonyl)phenoxy)pyridin-3-yl)-1-methylpyrrolidin-2-one [Example 209]”, the IC50 (IC50 class against PDE10, printed at end of example text) was below 25 nM.
